Source: patent US12319659B2, “Selective ligand for dopamine D3 receptor, preparation method therefor, and pharmaceutical application thereof” (Shenzhen Linglan Bio-Pharmaceutical Technology Co., Ltd, priority 2017, dated 2025)
Structures can show the parent of a compound that is named as a salt. Where two headings read alike, the source gives them in different places. One block for each molecule: values may come before it.

Tests used:
[1] = biological target: T1, dopamine D2 receptor (Homo sapiens, UniProt P14416); assay: Competitive inhibition test using radioligands ([3H]-sulpiride), D2 receptor; format: binding; conditions: for D2 Receptor Displacement (%) / inhibition: [3H]-sulpiride; for inhibition: read-out: D2 Receptor Displacement (%); for Ki: [3H]-sulpiride competition, HEK-293 cells, read-out: KiD2R
T1 construct: expressed in transfected cells; host or cells: Human embryonic kidney-293 cells
Description: (§2) Human embryonic kidney-293 cells were cultured in fresh MEM medium containing 10% fetal bovine serum, 100 units of penicillin, and 100 μg/mL streptomycin at 37° C. under 5% CO2. Cells were transfected with DNA plasmids of dopamine D2 and D3 receptors respectively by using polyethylenimine. After transfection for 4 hours, medium was replaced with fresh MEM medium containing fetal bovine serum and the cells were further cultured for 24 hours. The cells were seeded into 24-well plates and cultured for 14-16 hours or overnight. After the medium was discarded, the cells were rinsed with pre-cooled serum-free MEM. Radioligand ([^3H]-sulpiride) and various concentrations of compounds were added into the adherent cells, and incubated in a bath at 4° C. for 150 minutes. The cells were rinsed three times with pre-cooled MEM containing 10 mM HEPES to remove unbound ligands. After the medium was completely removed, the cells were lysed with 1% sodium lauryl sulfate. The remaining radioligands were detected with a liquid scintillation counter to calculate the relative amount of bound compounds.

[2] = test system: 6-OHDA-induced Parkinson's disease rats; assay: Rotarod assay in 6-hydroxydopamine-induced Parkinson's disease rats; format: in vivo, Sprague Dawley (SD) rats
Description: Experimental Sprague Dawley (SD) rats were randomly divided into an experimental group and a control group. After repeated behavior detection confirmed that there was no rotational behavior, the experiment was performed. Experimental group: rats were anesthetized with a mixture of xylazine (15 mg/kg, i.p.) and ketamine (100 mg/kg, i.p.), and then desipramine hydrochloride (25 mg/kg, s.c.) were used to protect noradrenergic neurons. 6 μg of 6-hydroxydopamine was dissolved in 2.3 μL of 0.9% sterile saline, and injected into the cerebral substantia nigra (antero-posterior −5.4 mm, […] from the bregma which was used as a zero coordinate) at a rate of 0.5 μL/min by using cerebral stereotaxic surgery. Rats in the control group were injected with the same dose of 0.9% sterile saline. After injection, the syringe needle was left in rats for 5 minutes before the needle was slowly withdrawn. After the rats awakened, they were placed in animal facilities for behavioral model evaluation to ensure that 6-hydroxydopamine induced the formation of a model with movement disorders and emotional/motivational disorders. Because hunger is prone to occur as a result of dopamine damage of the midbrain substantia nigra, 20% of rats were given high-calorie food for 1-2 weeks. After 19 days, the D3 receptor-selective ligand was continuously injected intraperitoneally for 3 days. Rats were allowed to accommodate the rotarod on days 19-20, and a rotarod assay was performed on days 21-22.

[3] = Solubility assay in anhydrous ethanol; format: physicochemical; conditions: organic solvent or mixture
Source text: (§1) Solubility Assay of the D3 Receptor-Selective Ligand

[4] = Solubility assay in water; format: physicochemical
Source text: as §1

[5] = biological target: T2, dopamine D3 receptor (Homo sapiens, UniProt P35462); assay: cell-based
Description: as §2

[6] = biological target: T2, dopamine D3 receptor
Description: as §2

[7] = arylpiperazine-phthalimide compounds at 100 nM, HEK-293 cells (Table 1)
[8] = arylpiperazine-arylurea compounds at 100 nM, HEK-293 cells (Table 2)

T2 sequence (P35462 whole entry): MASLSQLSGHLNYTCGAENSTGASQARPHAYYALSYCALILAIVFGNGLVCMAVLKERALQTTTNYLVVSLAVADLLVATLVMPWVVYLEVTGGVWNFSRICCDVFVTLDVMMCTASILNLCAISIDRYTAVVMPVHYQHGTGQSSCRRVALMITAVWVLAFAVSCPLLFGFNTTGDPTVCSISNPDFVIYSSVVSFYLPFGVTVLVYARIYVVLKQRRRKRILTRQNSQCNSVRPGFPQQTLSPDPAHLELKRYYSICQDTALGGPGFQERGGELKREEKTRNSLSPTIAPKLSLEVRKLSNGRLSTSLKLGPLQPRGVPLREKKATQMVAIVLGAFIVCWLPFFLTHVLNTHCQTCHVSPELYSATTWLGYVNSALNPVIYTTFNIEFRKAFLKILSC
T1 sequence (P14416 whole entry): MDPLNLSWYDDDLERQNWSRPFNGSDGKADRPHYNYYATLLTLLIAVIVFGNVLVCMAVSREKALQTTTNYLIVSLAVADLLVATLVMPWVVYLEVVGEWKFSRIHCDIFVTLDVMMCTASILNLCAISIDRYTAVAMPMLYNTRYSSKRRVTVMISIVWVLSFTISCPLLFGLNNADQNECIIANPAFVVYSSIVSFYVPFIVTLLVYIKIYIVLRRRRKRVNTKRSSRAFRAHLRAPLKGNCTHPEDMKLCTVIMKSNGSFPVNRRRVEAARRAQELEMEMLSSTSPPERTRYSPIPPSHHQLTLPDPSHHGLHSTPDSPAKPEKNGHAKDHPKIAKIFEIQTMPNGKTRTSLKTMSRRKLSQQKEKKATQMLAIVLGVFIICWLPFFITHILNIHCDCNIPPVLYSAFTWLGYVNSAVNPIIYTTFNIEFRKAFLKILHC

D2 Receptor Displacement (%) [1, 7]: 16.3 ± 4.2%
Structure (SMILES): O=C1c2ccccc2C(=O)N1CCCCN1CCN(c2ccc(Cl)cc2)CC1 [3i•HCl, 2-(4-(4-(4-chlorophenyl)piperazin-1-yl)butyl)isoindoline-1,3-dione]

inhibition [1, 7]: 30.2 ± 3.4%
Structure (SMILES): O=C1c2ccccc2C(=O)N1CCCCN1CCN(c2ccc(Cl)cc2Cl)CC1 [3k•HCl, 2-(4-(4-(2,4-dichlorophenyl)piperazin-1-yl)butyl)isoindoline-1,3-dione]

D2 Receptor Displacement (%) [1, 7]: 37.9 ± 2.8%
Structure (SMILES): O=C1c2ccccc2C(=O)N1CCCCN1CCN(c2cccc(C(F)(F)F)c2)CC1 [3p•HCl, 2-(4-(4-(3-(trifluoromethyl)phenyl)piperazin-1-yl)butyl)isoindoline-1,3-dione]

inhibition [1, 8]: 13.4 ± 8.5%
Structure (SMILES): O=C(NCCCCN1CCN(c2ccc(Cl)cc2)CC1)Nc1ccc2ccccc2n1 [7i•HCl, 1-(4-(4-(4-chlorophenyl)piperazin-1-yl)butyl)-3-(quinolin-2-yl)urea]

Ki [1]: 53.1 µM
D2 Receptor Displacement (%) [1, 8]: 15.2 ± 1.6%
solubility ([3]; 8.53 mg/mL): < 8530 µg/mL
solubility ([3]; 25.6 mg/mL): < 8530 µg/mL
Ki [5]: 0.0143 µM
Structure (SMILES): O=C(NCCCCN1CCN(c2ccc(Cl)cc2)CC1)Nc1cnc2ccccc2c1 [8i•HCl, 1-(4-(4-(4-chlorophenyl)piperazin-1-yl)butyl)-3-(quinolin-3-yl)urea]
effect compared with apomorphine (positive control drug) ([2]; 6-hydroxydopamine rats): comparable to the effect of apomorphine
motor dysfunction induced by 6-hydroxydopamine ([2]; intraperitoneal for 3 days): significantly improved
Solubility in water ([4]; 1 mg/mL): + (+ indicates that the compound was completely dissolved)
Solubility in water ([4]; 3 mg/mL): + (+ indicates that the compound was completely dissolved)
Solubility in water ([4]; 6 mg/mL): + (+ indicates that the compound was completely dissolved)
Solubility in water ([4]; 12 mg/mL): + (+ indicates that the compound was completely dissolved)

inhibition [1, 8]: 4.8 ± 4.3%
Structure (SMILES): O=C(NCCCCN1CCN(c2cccc(Cl)c2Cl)CC1)Nc1cnc2ccccc2c1 [8j•HCl, 1-(4-(4-(2,3-dichlorophenyl)piperazin-1-yl)butyl)-3-(quinolin-3-yl)urea]

D2 Receptor Displacement (%) [1, 8]: 10.7 ± 4.0%
Structure (SMILES): O=C(NCCCCN1CCN(c2cc(C(F)(F)F)ccc2F)CC1)Nc1cnc2ccccc2c1 [8n•HCl, 1-(4-(4-(2-fluoro-5-(trifluoromethyl)phenyl)piperazin-1-yl)butyl)-3-(quinolin-3-yl)urea]

D2 Receptor Displacement (%) [1, 8]: 84.1 ± 1.8%
Structure (SMILES): O=C(NCCCCN1CCN(c2cccc(C(F)(F)F)c2)CC1)Nc1cnc2ccccc2c1 [8p•HCl, 1-(4-(4-(3-(trifluoromethyl)phenyl)piperazin-1-yl)butyl)-3-(quinolin-3-yl)urea]

D2 Receptor Displacement (%) [1, 8]: 33.4 ± 5.9%
Structure (SMILES): O=C(NCCCCN1CCN(c2ccc(Cl)cc2)CC1)Nc1nc2ccccc2s1 [21i•HCl, 1-(benzothiazol-2-yl)-3-(4-(4-(4-chlorophenyl)piperazin-1-yl)butyl)urea]

D2 Receptor Displacement (%) [1, 8]: 52.1 ± 2.0%
Structure (SMILES): O=C(NCCCCN1CCN(c2cccc(Cl)c2Cl)CC1)Nc1nc2ccccc2s1 [21j•HCl, 1-(benzothiazol-2-yl)-3-(4-(4-(2,3-dichlorophenyl)piperazin-1-yl)butyl)urea]

D2 Receptor Displacement (%) [1, 8]: 19.0 ± 1.4%
Structure (SMILES): O=C(NCCCCN1CCN(c2ccc(Cl)cc2Cl)CC1)Nc1nc2ccccc2s1 [21k•HCl, 1-(benzothiazol-2-yl)-3-(4-(4-(2,4-dichlorophenyl)piperazin-1-yl)butyl)urea]

Ki [6]: 0.0156 µM
Structure (SMILES): O=C(NCCCCN1CCN(c2cccc(Cl)c2Cl)CC1)c1cc2ccccc2[nH]1 [31j•HCl, N-(4-(4-(2,3-dichlorophenyl)piperazin-1-yl)butyl)-1H-indole-2-carboxamide, reference compound]

Ki [1]: > 23.9 µM
Structure (SMILES): O=C(NCCCCN1CCN(c2ccc(Cl)cc2Cl)CC1)c1cc2ccccc2[nH]1 [31k•HCl, N-(4-(4-(2,4-dichlorophenyl)piperazin-1-yl)butyl)-1H-indole-2-carboxamide, reference compound]

inhibition [1, 7]: 31.8 ± 3.3%
Structure (SMILES): O=C1c2ccccc2C(=O)N1CCCCN1CCN(c2ccccc2F)CC1 [Compound 3a, 2-(4-(4-(2-fluorophenyl)piperazin-1-yl)butyl)isoindoline-1,3-dione]

inhibition [1, 7]: -6.3 ± 4%
Structure (SMILES): O=C1c2ccccc2C(=O)N1CCCCN1CCN(c2ccc(F)cc2)CC1 [Compound 3c, 2-(4-(4-(4-fluorophenyl)piperazin-1-yl)butyl)isoindoline-1,3-dione]

Ki [6]: 0.0193 µM
Ki [1]: 2.16 µM
D2 Receptor Displacement (%) [1, 7]: 17.7 ± 3.7%
Structure (SMILES): O=C1c2ccccc2C(=O)N1CCCCN1CCN(c2cccc(F)c2F)CC1 [Compound 3d, 2-(4-(4-(2,3-fluorophenyl)piperazin-1-yl)butyl)isoindoline-1,3-dione]

D2 Receptor Displacement (%) [1, 7]: 4.8 ± 6.5%
Structure (SMILES): O=C1c2ccccc2C(=O)N1CCCCN1CCN(c2ccc(F)cc2F)CC1 [Compound 3e, 2-(4-(4-(2,4-fluorophenyl)piperazin-1-yl)butyl)isoindoline-1,3-dione]

D2 Receptor Displacement (%) [1, 7]: 10.3 ± 6.1%
Structure (SMILES): O=C1c2ccccc2C(=O)N1CCCCN1CCN(c2c(F)cccc2F)CC1 [Compound 3f, 2-(4-(4-(2,6-fluorophenyl)piperazin-1-yl)butyl)isoindoline-1,3-dione]

inhibition [1, 7]: 28.7 ± 3.3%
Structure (SMILES): O=C1c2ccccc2C(=O)N1CCCCN1CCN(c2ccccc2Cl)CC1 [Compound 3g, 2-(4-(4-(2-chlorophenyl)piperazin-1-yl)butyl)isoindoline-1,3-dione]

inhibition [1, 7]: 64.8 ± 3.5%
Structure (SMILES): O=C1c2ccccc2C(=O)N1CCCCN1CCN(c2cccc(Cl)c2)CC1 [Compound 3h, 2-(4-(4-(3-chlorophenyl)piperazin-1-yl)butyl)isoindoline-1,3-dione]

D2 Receptor Displacement (%) [1, 7]: 59.2 ± 18.3%
Structure (SMILES): O=C1c2ccccc2C(=O)N1CCCCN1CCN(c2ccc(Cl)cc2)CC1 [Compound 3i, 2-(4-(4-(4-chlorophenyl)piperazin-1-yl)butyl)isoindoline-1,3-dione]

inhibition [1, 7]: 70.3 ± 2.7%
Structure (SMILES): O=C1c2ccccc2C(=O)N1CCCCN1CCN(c2cccc(Cl)c2Cl)CC1 [Compound 3j, 2-(4-(4-(2,3-dichlorophenyl)piperazin-1-yl)butyl)isoindoline-1,3-dione]

inhibition [1, 7]: 2.8 ± 12%
Structure (SMILES): O=C1c2ccccc2C(=O)N1CCCCN1CCN(c2ccc(Cl)cc2F)CC1 [Compound 3m, 2-(4-(4-(4-chloro-2-fluorophenyl)piperazin-1-yl)butyl)isoindoline-1,3-dione]

inhibition [1, 7]: -4.7 ± 7.8%
Structure (SMILES): O=C1c2ccccc2C(=O)N1CCCCN1CCN(c2cc(C(F)(F)F)ccc2F)CC1 [Compound 3n, 2-(4-(4-(2-fluoro-5-(trifluoromethyl)phenyl)piperazin-1-yl)butyl)isoindoline-1,3-dione]

inhibition [1, 7]: 44 ± 1.6%
Structure (SMILES): O=C1c2ccccc2C(=O)N1CCCCN1CCN(c2cccc(C(F)(F)F)c2)CC1 [Compound 3p, 2-(4-(4-(3-(trifluoromethyl)phenyl)piperazin-1-yl)butyl)isoindoline-1,3-dione]

D2 Receptor Displacement (%) [1, 8]: 24.9 ± 1.8%
Structure (SMILES): O=C(NCCCCN1CCN(c2cc(C(F)(F)F)ccc2F)CC1)Nc1cnc2ccccc2c1 [Compound 8n, 1-(4-(4-(2-fluoro-5-(trifluoromethyl)phenyl)piperazin-1-yl)butyl)-3-(quinolin-3-yl)urea]

D2 Receptor Displacement (%) [1, 8]: −6.7 ± 4.2%
Structure (SMILES): O=C(NCCCCN1CCN(c2cccc(C(F)(F)F)c2)CC1)Nc1cnc2ccccc2c1 [Compound 8p, 1-(4-(4-(3-(trifluoromethyl)phenyl)piperazin-1-yl)butyl)-3-(quinolin-3-yl)urea]

inhibition [1, 8]: -14.7 ± 1.8%
Structure (SMILES): O=C(NCCCCN1CCN(c2ccc(Cl)cc2)CC1)Nc1cc2ccccc2cn1 [Compound 11i, 1-(4-(4-(4-chlorophenyl)piperazin-1-yl)butyl)-3-(isoquinolin-3-yl)urea]

inhibition [1, 8]: 36.8 ± 6.5%
Structure (SMILES): O=C(NCCCCN1CCN(c2ccc(Cl)cc2)CC1)Nc1nc2ccccc2s1 [Compound 21i, 1-(benzothiazol-2-yl)-3-(4-(4-(4-chlorophenyl)piperazin-1-yl)butyl)urea]

inhibition [1, 8]: 35.5 ± 3.4%
Structure (SMILES): O=C(NCCCCN1CCN(c2cccc(Cl)c2Cl)CC1)Nc1nc2ccccc2s1 [Compound 21j, 1-(benzothiazol-2-yl)-3-(4-(4-(2,3-dichlorophenyl)piperazin-1-yl)butyl)urea]

D2 Receptor Displacement (%) [1, 8]: 40.8 ± 5.6%
Structure (SMILES): O=C(NCCCCN1CCN(c2ccc(Cl)cc2Cl)CC1)Nc1nc2ccccc2s1 [Compound 21k, 1-(benzothiazol-2-yl)-3-(4-(4-(2,4-dichlorophenyl)piperazin-1-yl)butyl)urea]

Ki [5]: 6.21 µM
Structure (SMILES): O=C(NCCCCN1CCN(c2cccc(Cl)c2Cl)CC1)c1cc2ccccc2[nH]1 [Compound 31j, N-(4-(4-(2,3-dichlorophenyl)piperazin-1-yl)butyl)-1H-indole-2-carboxamide, reference compound]

inhibition [1, 7]: 92.2 ± 0.1%
Structure (SMILES): CCN1CCCC1CNC(=O)c1cc(S(N)(=O)=O)ccc1OC (stereo not drawn) [sulpiride, reference compound]
